Laboratory results as given in ChEMBL document CHEMBL1201862, “PubChem BioAssay data set” (2004).
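96-well plates; 48 h exposure; 5 concentrations. Endpoints by linear interpolation between flanking doses. Not reached: highest tested concentration assigned. GI50 marks 50% less growth.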 Calls of active or inactive are those of the source. Rule as the data show it: active = GI50 up to about 1.1 µM and inactive = higher.

Assays:
Assay in all cases: growth of human tumour cells (NCI), 48 h
786-0 = test system: 786-0
A498 = test system: A498
A549 = test system: A549
ACHN = test system: ACHN
CAKI-1 = test system: CAKI-1
CCRF-CEM = test system: CCRF-CEM
COLO 205 = test system: COLO 205
DLD-1 = test system: DLD-1
DMS-114 = test system: DMS-114
DMS-273 = test system: DMS-273
EKVX = test system: EKVX
HCC 2998 = test system: HCC 2998
HCT-116 = test system: HCT-116
HCT-15 = test system: HCT-15
HL-60 = test system: HL-60
HOP-18 = test system: HOP-18
HOP-62 = test system: HOP-62
HOP-92 = test system: HOP-92
HT-29 = test system: HT-29
IGROV-1 = test system: IGROV-1
K562 = test system: K562
KM-20L2 = test system: KM-20L2
KM12 = test system: KM12
LOX IMVI = test system: LOX IMVI
LXFL 529 = test system: LXFL 529
M14 = test system: M14
M19-MEL = test system: M19-MEL
MOLT-4 = test system: MOLT-4
Malme-3M = test system: Malme-3M
NCI-H226 = test system: NCI-H226
NCI-H23 = test system: NCI-H23
NCI-H460 = test system: NCI-H460
NCI-H522 = test system: NCI-H522
OVCAR-3 = test system: OVCAR-3
OVCAR-4 = test system: OVCAR-4
OVCAR-5 = test system: OVCAR-5
OVCAR-8 = test system: OVCAR-8
RPMI-8226 = test system: RPMI-8226
RXF 393 = test system: RXF 393
SF-268 = test system: SF-268
SF-295 = test system: SF-295
SF-539 = test system: SF-539
SK-MEL-28 = test system: SK-MEL-28
SK-MEL-2 = test system: SK-MEL-2
SK-MEL-5 = test system: SK-MEL-5
SK-OV-3 = test system: SK-OV-3
SN12C = test system: SN12C
SNB-19 = test system: SNB-19
SNB-75 = test system: SNB-75
SNB-78 = test system: SNB-78
SW-620 = test system: SW-620
TK-10 = test system: TK-10
U-251 = test system: U-251
UACC-257 = test system: UACC-257
UACC-62 = test system: UACC-62
UO-31 = test system: UO-31
XF498 = test system: XF498
RXF 631 = test system: RXF 631
SR = test system: SR

SMILES: CC1CN1c1c(C(=O)/C=C/c2ccc(F)cc2)c(-c2ccccc2)nn(C)c1=O (stereo not drawn)
- GI50 (786-0): 15.4 µM (inactive)
- GI50 (A498): > 10 µM (inactive)
- GI50 (A549): 18.3 µM (inactive)
- GI50 (ACHN): 16.3 µM (inactive)
- GI50 (CAKI-1): > 10 µM (inactive)
- GI50 (CCRF-CEM): 13.8 µM (inactive)
- GI50 (COLO 205): 18.5 µM (inactive)
- GI50 (DLD-1): 12.8 µM (inactive)
- GI50 (DMS-114): 15.7 µM (inactive)
- GI50 (DMS-273): > 10 µM (inactive)
- GI50 (EKVX): 19 µM (inactive)
- GI50 (HCC 2998): 15.2 µM (inactive)
- GI50 (HCT-116): 13.5 µM (inactive)
- GI50 (HCT-15): > 10 µM
- GI50 (HL-60): 13.4 µM (inactive)
- GI50 (HOP-18): 15.2 µM (inactive)
- GI50 (HOP-62): 23.8 µM (inactive)
- GI50 (HOP-92): 6.58 µM (inactive)
- GI50 (HT-29): 16.9 µM (inactive)
- GI50 (IGROV-1): 19.8 µM (inactive)
- GI50 (K562): > 10 µM (inactive)
- GI50 (KM-20L2): 17.7 µM (inactive)
- GI50 (KM12): 15.7 µM (inactive)
- GI50 (LOX IMVI): 13.7 µM (inactive)
- GI50 (LXFL 529): 16.7 µM (inactive)
- GI50 (M14): 16.9 µM (inactive)
- GI50 (M19-MEL): 14.6 µM (inactive)
- GI50 (MOLT-4): 14.3 µM (inactive)
- GI50 (Malme-3M): 16 µM (inactive)
- GI50 (NCI-H226): 11.9 µM (inactive)
- GI50 (NCI-H23): 14 µM (inactive)
- GI50 (NCI-H460): 17.1 µM (inactive)
- GI50 (NCI-H522): > 10 µM (inactive)
- GI50 (OVCAR-3): 15.4 µM (inactive)
- GI50 (OVCAR-4): 16.5 µM (inactive)
- GI50 (OVCAR-5): 12.3 µM (inactive)
- GI50 (OVCAR-8): 14.2 µM (inactive)
- GI50 (RPMI-8226): 9.46 µM (inactive)
- GI50 (RXF 393): 10.3 µM (inactive)
- GI50 (SF-268): 16.3 µM (inactive)
- GI50 (SF-295): 16.2 µM (inactive)
- GI50 (SF-539): > 10 µM (inactive)
- GI50 (SK-MEL-28): 17.5 µM (inactive)
- GI50 (SK-MEL-2): 18.2 µM (inactive)
- GI50 (SK-MEL-5): 16 µM (inactive)
- GI50 (SK-OV-3): > 10 µM (inactive)
- GI50 (SN12C): 15.4 µM (inactive)
- GI50 (SNB-19): 16 µM (inactive)
- GI50 (SNB-75): 14.3 µM (inactive)
- GI50 (SNB-78): 23.4 µM (inactive)
- GI50 (SW-620): 17.9 µM (inactive)
- GI50 (TK-10): 17.2 µM (inactive)
- GI50 (U-251): 15.5 µM (inactive)
- GI50 (UACC-257): 14.2 µM (inactive)
- GI50 (UACC-62): 13.6 µM (inactive)
- GI50 (UO-31): 12.9 µM (inactive)
- GI50 (XF498): 15.3 µM (inactive)

SMILES: CC(=O)NC1C(OCc2ccccc2)OC(COC(=O)CCCCCNc2ccc([N+](=O)[O-])c3[nH]c4ccc(O)cc4c(=O)c23)C(O)C1OC(C)C(=O)N[C@@H](C)C(=O)N[C@H](CCC(=O)OCc1ccccc1)C(N)=O (stereo partly drawn)
- GI50 (786-0): 1.86 µM (inactive)
- GI50 (A498): 2.1 µM (inactive)
- GI50 (A549): 1.26 µM (inactive)
- GI50 (ACHN): 17.3 µM (inactive)
- GI50 (CAKI-1): 1.56 µM (inactive)
- GI50 (CCRF-CEM): 3.06 µM (inactive)
- GI50 (COLO 205): 1.55 µM (inactive)
- GI50 (DLD-1): 1.8 µM (inactive)
- GI50 (DMS-273): 1.49 µM (inactive)
- GI50 (EKVX): 3.94 µM (inactive)
- GI50 (HCC 2998): 3.25 µM (inactive)
- GI50 (HCT-116): 0.321 µM (active)
- GI50 (HCT-15): 0.745 µM
- GI50 (HL-60): 2.77 µM (inactive)
- GI50 (HOP-18): 1.71 µM (inactive)
- GI50 (HOP-62): 5.9 µM (inactive)
- GI50 (HOP-92): 0.879 µM (active)
- GI50 (HT-29): 0.401 µM (active)
- GI50 (IGROV-1): 7.24 µM (inactive)
- GI50 (K562): 1.49 µM (inactive)
- GI50 (KM-20L2): 0.234 µM (active)
- GI50 (KM12): 1.39 µM (inactive)
- GI50 (LOX IMVI): 2.39 µM (inactive)
- GI50 (LXFL 529): 1.5 µM (inactive)
- GI50 (M14): 1.49 µM (inactive)
- GI50 (M19-MEL): 5.68 µM (inactive)
- GI50 (MOLT-4): 1.87 µM (inactive)
- GI50 (Malme-3M): 1.32 µM (inactive)
- GI50 (NCI-H226): 4.9 µM (inactive)
- GI50 (NCI-H23): 1.35 µM (inactive)
- GI50 (NCI-H460): 0.261 µM (active)
- GI50 (NCI-H522): 1.6 µM (inactive)
- GI50 (OVCAR-3): 2.15 µM (inactive)
- GI50 (OVCAR-4): 3.34 µM (inactive)
- GI50 (OVCAR-5): 1.06 µM (active)
- GI50 (OVCAR-8): 1.64 µM (inactive)
- GI50 (RPMI-8226): 0.506 µM (active)
- GI50 (RXF 393): 1.6 µM (inactive)
- GI50 (RXF 631): 0.759 µM (active)
- GI50 (SF-268): 2.31 µM (inactive)
- GI50 (SF-295): 3.08 µM (inactive)
- GI50 (SF-539): 3.4 µM (inactive)
- GI50 (SK-MEL-28): 2.69 µM (inactive)
- GI50 (SK-MEL-2): 1.95 µM (inactive)
- GI50 (SK-MEL-5): 8.53 µM (inactive)
- GI50 (SK-OV-3): 2.99 µM (inactive)
- GI50 (SN12C): 6.59 µM (inactive)
- GI50 (SNB-19): 3 µM (inactive)
- GI50 (SNB-75): 4.13 µM (inactive)
- GI50 (SNB-78): 3.16 µM (inactive)
- GI50 (SR): 0.522 µM (active)
- GI50 (SW-620): 0.465 µM (active)
- GI50 (TK-10): 3.06 µM (inactive)
- GI50 (U-251): 2.45 µM (inactive)
- GI50 (UACC-257): 2.45 µM (inactive)
- GI50 (UACC-62): 1.77 µM (inactive)
